Test results published in ChEMBL document CHEMBL4334508, “Oleanolic Acid Derivatives as Potential Inhibitors of HIV-1 Protease” (J Nat Prod, 2019).

Target: Protease (Human immunodeficiency virus 1, UniProt Q9YQ12)
Assay: Inhibition of HIV1 protease expressed in Escherichia coli using Abz-Ala-Arg-Val-Nle-Tyr(NO2)-Glu-Ala-Nle-NH2 peptide as substrate by FRET assay

Chain of Protease (Q9YQ12 whole entry): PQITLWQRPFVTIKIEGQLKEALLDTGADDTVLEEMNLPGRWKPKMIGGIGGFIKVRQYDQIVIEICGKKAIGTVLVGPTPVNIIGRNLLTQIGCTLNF

| Compound | IC50 [µM] |
| --- | --- |
| CC1(C)CC[C@]2(C(=O)NCCCCCC(=O)NCC(=O)O)CC[C@]3(C)C(=CC[C@@H]4[C@@]5(C)CC[C@H](OC(=O)CCC(=O)O)C(C)(C)[C@@H]5CC[C@]43C)[C@@H]2C1 | > 50 |
| CC(C)[C@H](NC(=O)CCCCCCCCCCNC(=O)[C@]12CCC(C)(C)C[C@H]1C1=CC[C@@H]3[C@@]4(C)CC[C@H](OC(=O)CC(C)(C)CC(=O)O)C(C)(C)[C@@H]4CC[C@@]3(C)[C@]1(C)CC2)C(=O)O | > 50 |
| CC(=O)O[C@H]1CC[C@]2(C)[C@H]3CC=C4[C@@H]5CC(C)(C)CC[C@]5(C(=O)NCCCC(=O)N[C@@H](C)C(=O)O)CC[C@@]4(C)[C@]3(C)CC[C@H]2C1(C)C | > 50 |
| CCCCCCCCCCCC(=O)O[C@H]1CC[C@]2(C)[C@H]3CC=C4[C@@H]5CC(C)(C)CC[C@]5(C(=O)NCCCCCC(=O)N[C@@H](C)C(=O)O)CC[C@@]4(C)[C@]3(C)CC[C@H]2C1(C)C | > 50 |
| CC(=O)O[C@H]1CC[C@]2(C)[C@H]3CC=C4[C@@H]5CC(C)(C)CC[C@]5(C(=O)NCCCC(=O)O)CC[C@@]4(C)[C@]3(C)CC[C@H]2C1(C)C | 32.6 |
| CCC(=O)O[C@H]1CC[C@]2(C)[C@H]3CC=C4[C@@H]5CC(C)(C)CC[C@]5(C(=O)NCCCC(=O)N[C@H](C(=O)O)C(C)C)CC[C@@]4(C)[C@]3(C)CC[C@H]2C1(C)C | > 50 |
| CC(=O)O[C@H]1CC[C@]2(C)[C@H]3CC=C4[C@@H]5CC(C)(C)CC[C@]5(C(=O)NCCCCCCCCCCC(=O)O)CC[C@@]4(C)[C@]3(C)CC[C@H]2C1(C)C | > 50 |
| CCCCCC(=O)O[C@H]1CC[C@]2(C)[C@H]3CC=C4[C@@H]5CC(C)(C)CC[C@]5(C(=O)NCCCCCC(=O)O)CC[C@@]4(C)[C@]3(C)CC[C@H]2C1(C)C | > 50 |
| CC(C)[C@H](NC(=O)CCCCCNC(=O)[C@]12CCC(C)(C)C[C@H]1C1=CC[C@@H]3[C@@]4(C)CC[C@H](OC(=O)c5ccccc5)C(C)(C)[C@@H]4CC[C@@]3(C)[C@]1(C)CC2)C(=O)O | > 50 |
| CC(=O)O[C@H]1CC[C@]2(C)[C@H]3CC=C4[C@@H]5CC(C)(C)CC[C@]5(C(=O)NCCCCCCCCCCC(=O)N[C@@H](C)C(=O)O)CC[C@@]4(C)[C@]3(C)CC[C@H]2C1(C)C | > 50 |
| CC1(C)CC[C@]2(C(=O)NCCCCCC(=O)NCC(=O)O)CC[C@]3(C)C(=CC[C@@H]4[C@@]5(C)CC[C@H](OC(=O)c6ccccc6)C(C)(C)[C@@H]5CC[C@]43C)[C@@H]2C1 | > 50 |
| CC(C)[C@H](NC(=O)CCCNC(=O)[C@]12CCC(C)(C)C[C@H]1C1=CC[C@@H]3[C@@]4(C)CC[C@H](OC(=O)CCCC(=O)O)C(C)(C)[C@@H]4CC[C@@]3(C)[C@]1(C)CC2)C(=O)O | 19.8 |
| CC(=O)N[C@H](C(=O)N[C@H](C(=O)N[C@@H](CC(C)C)[C@@H](O)CC(=O)N[C@@H](C)C(=O)N[C@@H](CC(C)C)[C@@H](O)CC(=O)O)C(C)C)C(C)C [ACETYLPEPSTATIN] | 0.24 |
| CCCCCCCCCCCC(=O)O[C@H]1CC[C@]2(C)[C@H]3CC=C4[C@@H]5CC(C)(C)CC[C@]5(C(=O)NCCCC(=O)N[C@H](C(=O)O)C(C)C)CC[C@@]4(C)[C@]3(C)CC[C@H]2C1(C)C | > 50 |
| CCCCCCCCCCCC(=O)O[C@H]1CC[C@]2(C)[C@H]3CC=C4[C@@H]5CC(C)(C)CC[C@]5(C(=O)NCCCCCC(=O)N[C@H](C(=O)O)C(C)C)CC[C@@]4(C)[C@]3(C)CC[C@H]2C1(C)C | > 50 |
| CCCCCC(=O)O[C@H]1CC[C@]2(C)[C@H]3CC=C4[C@@H]5CC(C)(C)CC[C@]5(C(=O)NCCCCCCCCCCC(=O)O)CC[C@@]4(C)[C@]3(C)CC[C@H]2C1(C)C | > 50 |
| C[C@H](NC(=O)CCCCCNC(=O)[C@]12CCC(C)(C)C[C@H]1C1=CC[C@@H]3[C@@]4(C)CC[C@H](OC(=O)CCC(=O)O)C(C)(C)[C@@H]4CC[C@@]3(C)[C@]1(C)CC2)C(=O)O | 40.2 |
| CC1(C)CC[C@]2(C(=O)NCCCCCCCCCCC(=O)O)CC[C@]3(C)C(=CC[C@@H]4[C@@]5(C)CC[C@H](OC(=O)c6ccccc6)C(C)(C)[C@@H]5CC[C@]43C)[C@@H]2C1 | > 50 |
| CCC(=O)O[C@H]1CC[C@]2(C)[C@H]3CC=C4[C@@H]5CC(C)(C)CC[C@]5(C(=O)NCCCC(=O)O)CC[C@@]4(C)[C@]3(C)CC[C@H]2C1(C)C | > 50 |
| CCCCCCCCCCCC(=O)O[C@H]1CC[C@]2(C)[C@H]3CC=C4[C@@H]5CC(C)(C)CC[C@]5(C(=O)NCCCCCCCCCCC(=O)NCC(=O)O)CC[C@@]4(C)[C@]3(C)CC[C@H]2C1(C)C | > 50 |
| CCCC(=O)O[C@H]1CC[C@]2(C)[C@H]3CC=C4[C@@H]5CC(C)(C)CC[C@]5(C(=O)NCCCCCC(=O)N[C@@H](C)C(=O)O)CC[C@@]4(C)[C@]3(C)CC[C@H]2C1(C)C | 40 |
| CC(C)(CC(=O)O)CC(=O)O[C@H]1CC[C@]2(C)[C@H]3CC=C4[C@@H]5CC(C)(C)CC[C@]5(C(=O)NCCCCCCCCCCC(=O)NCC(=O)O)CC[C@@]4(C)[C@]3(C)CC[C@H]2C1(C)C | > 50 |
| CCCCCC(=O)O[C@H]1CC[C@]2(C)[C@H]3CC=C4[C@@H]5CC(C)(C)CC[C@]5(C(=O)NCCCC(=O)O)CC[C@@]4(C)[C@]3(C)CC[C@H]2C1(C)C | > 50 |

| Compound | IC50 [µM] |
| --- | --- |
| CC1(C)CC[C@]2(C(=O)NCCCCCC(=O)NCC(=O)O)CC[C@]3(C)C(=CC[C@@H]4[C@@]5(C)CC[C@H](OC(=O)CCCC(=O)O)C(C)(C)[C@@H]5CC[C@]43C)[C@@H]2C1 | > 50 |
| CC(C)[C@H](NC(=O)CCCCCCCCCCNC(=O)[C@]12CCC(C)(C)C[C@H]1C1=CC[C@@H]3[C@@]4(C)CC[C@H](OC(=O)c5ccccc5C(=O)O)C(C)(C)[C@@H]4CC[C@@]3(C)[C@]1(C)CC2)C(=O)O | 1.2 |
| C[C@H](NC(=O)CCCNC(=O)[C@]12CCC(C)(C)C[C@H]1C1=CC[C@@H]3[C@@]4(C)CC[C@H](OC(=O)CC(C)(C)CC(=O)O)C(C)(C)[C@@H]4CC[C@@]3(C)[C@]1(C)CC2)C(=O)O | > 50 |
| CC(C)(CC(=O)O)CC(=O)O[C@H]1CC[C@]2(C)[C@H]3CC=C4[C@@H]5CC(C)(C)CC[C@]5(C(=O)NCCCC(=O)NCC(=O)O)CC[C@@]4(C)[C@]3(C)CC[C@H]2C1(C)C | > 50 |
| CC(C)[C@H](NC(=O)CCCNC(=O)[C@]12CCC(C)(C)C[C@H]1C1=CC[C@@H]3[C@@]4(C)CC[C@H](OC(=O)c5ccccc5)C(C)(C)[C@@H]4CC[C@@]3(C)[C@]1(C)CC2)C(=O)O | > 50 |
| CCCCCCCCCCCC(=O)O[C@H]1CC[C@]2(C)[C@H]3CC=C4[C@@H]5CC(C)(C)CC[C@]5(C(=O)NCCCC(=O)NCC(=O)O)CC[C@@]4(C)[C@]3(C)CC[C@H]2C1(C)C | > 50 |
| CC(C)(CC(=O)O)CC(=O)O[C@H]1CC[C@]2(C)[C@H]3CC=C4[C@@H]5CC(C)(C)CC[C@]5(C(=O)NCCCCCC(=O)O)CC[C@@]4(C)[C@]3(C)CC[C@H]2C1(C)C | 12.4 |
| CC(=O)O[C@H]1CC[C@]2(C)[C@H]3CC=C4[C@@H]5CC(C)(C)CC[C@]5(C(=O)NCCCC(=O)NCC(=O)O)CC[C@@]4(C)[C@]3(C)CC[C@H]2C1(C)C | > 50 |
| CCCC(=O)O[C@H]1CC[C@]2(C)[C@H]3CC=C4[C@@H]5CC(C)(C)CC[C@]5(C(=O)NCCCCCC(=O)N[C@H](C(=O)O)C(C)C)CC[C@@]4(C)[C@]3(C)CC[C@H]2C1(C)C | > 50 |
| CC1(C)CC[C@]2(C(=O)NCCCCCC(=O)NCC(=O)O)CC[C@]3(C)C(=CC[C@@H]4[C@@]5(C)CC[C@H](OC(=O)c6ccccc6C(=O)O)C(C)(C)[C@@H]5CC[C@]43C)[C@@H]2C1 | 3.1 |
| CCC(=O)O[C@H]1CC[C@]2(C)[C@H]3CC=C4[C@@H]5CC(C)(C)CC[C@]5(C(=O)NCCCC(=O)N[C@@H](C)C(=O)O)CC[C@@]4(C)[C@]3(C)CC[C@H]2C1(C)C | > 50 |
| CC1(C)CC[C@]2(C(=O)NCCCC(=O)NCC(=O)O)CC[C@]3(C)C(=CC[C@@H]4[C@@]5(C)CC[C@H](OC(=O)c6ccccc6C(=O)O)C(C)(C)[C@@H]5CC[C@]43C)[C@@H]2C1 | 2.2 |
| C[C@H](NC(=O)CCCCCCCCCCNC(=O)[C@]12CCC(C)(C)C[C@H]1C1=CC[C@@H]3[C@@]4(C)CC[C@H](OC(=O)c5ccccc5C(=O)O)C(C)(C)[C@@H]4CC[C@@]3(C)[C@]1(C)CC2)C(=O)O | 1 |
| CC1(C)CC[C@]2(C(=O)NCCCC(=O)NCC(=O)O)CC[C@]3(C)C(=CC[C@@H]4[C@@]5(C)CC[C@H](OC(=O)CCC(=O)O)C(C)(C)[C@@H]5CC[C@]43C)[C@@H]2C1 | > 50 |
| CCC(=O)O[C@H]1CC[C@]2(C)[C@H]3CC=C4[C@@H]5CC(C)(C)CC[C@]5(C(=O)NCCCCCCCCCCC(=O)N[C@@H](C)C(=O)O)CC[C@@]4(C)[C@]3(C)CC[C@H]2C1(C)C | > 50 |
| CCCC(=O)O[C@H]1CC[C@]2(C)[C@H]3CC=C4[C@@H]5CC(C)(C)CC[C@]5(C(=O)NCCCCCCCCCCC(=O)O)CC[C@@]4(C)[C@]3(C)CC[C@H]2C1(C)C | > 50 |
| CC1(C)CC[C@]2(C(=O)NCCCC(=O)O)CC[C@]3(C)C(=CC[C@@H]4[C@@]5(C)CC[C@H](OC(=O)c6ccccc6)C(C)(C)[C@@H]5CC[C@]43C)[C@@H]2C1 | > 50 |
| CC(C)[C@H](NC(=O)CCCCCNC(=O)[C@]12CCC(C)(C)C[C@H]1C1=CC[C@@H]3[C@@]4(C)CC[C@H](OC(=O)c5ccccc5C(=O)O)C(C)(C)[C@@H]4CC[C@@]3(C)[C@]1(C)CC2)C(=O)O | 0.59 |
| C[C@H](NC(=O)CCCNC(=O)[C@]12CCC(C)(C)C[C@H]1C1=CC[C@@H]3[C@@]4(C)CC[C@H](OC(=O)CCCC(=O)O)C(C)(C)[C@@H]4CC[C@@]3(C)[C@]1(C)CC2)C(=O)O | 6.6 |
| CCCC(=O)O[C@H]1CC[C@]2(C)[C@H]3CC=C4[C@@H]5CC(C)(C)CC[C@]5(C(=O)NCCCCCCCCCCC(=O)N[C@H](C(=O)O)C(C)C)CC[C@@]4(C)[C@]3(C)CC[C@H]2C1(C)C | > 50 |
| CCCCCC(=O)O[C@H]1CC[C@]2(C)[C@H]3CC=C4[C@@H]5CC(C)(C)CC[C@]5(C(=O)NCCCCCC(=O)N[C@@H](C)C(=O)O)CC[C@@]4(C)[C@]3(C)CC[C@H]2C1(C)C | > 50 |
| C[C@H](NC(=O)CCCCCNC(=O)[C@]12CCC(C)(C)C[C@H]1C1=CC[C@@H]3[C@@]4(C)CC[C@H](OC(=O)CC(C)(C)CC(=O)O)C(C)(C)[C@@H]4CC[C@@]3(C)[C@]1(C)CC2)C(=O)O | 24.1 |
